Test results: patent publication US20230203094A1, “Composition Comprising Thermosensitive Gel and Oligopeptide, and Use Thereof” (International Frontier Technology Laboratory, Inc., priority 2019, published 2023)

Tested on: human keratinocyte cell (KAC Co., Ltd.: KER110)
Assay: Cell proliferation test (Cell Counting Kit-8) in TGP culturing substrate
Type: cell-based
Settings: 7 days culture, control = 100%, p < 0.01 (Dunnett)
Protocol: human keratinocyte cell (KAC Co., Ltd.: KER110)
the composition of the present disclosure comprising the polymer compound (TGP in Preparation Example 1) and oligopeptide of the present disclosure.
Frozen human keratinocyte cells (KAC Co., Ltd.: KER110) were dissolved in warm water at 37° C., suspended in EpiLife Medium (Thermo Fisher Scientific, Inc.: MEPI500CA) to which Human Keratinocyte Growth Supplement (HKGS) (Thermo Fisher Scientific, Inc.: S0015) was added, seeded in a 25 cm^2 flask, and cultured at 37° C. in an atmosphere containing 5% CO2.
The cultured cells were washed with DPBS (Thermo Fisher Scientific, Inc.: 14190144), and a trypsin solution (Thermo Fisher Scientific, Inc.: 12604013) was added to the cultured cells to recover cells and was centrifuged at 1,000 rpm for three minutes. After the centrifugation, supernatant was removed. A cell suspension obtained by adding a culture solution to a cell sediment was seeded in a 25 cm^2 flask and subcultured at 37° C. in an atmosphere containing 5% CO2.
The tripeptide in Preparation Example 3 was dissolved in a culture medium to prepare six samples having concentrations of 1 µM, 3 µM, 10 µM, 30 µM, 100 µM, and 1000 µM. A control includes only a culture medium.
The polymer compound (TGP in Preparation Example 1) of the present disclosure is added into a 48-well plate and freeze-dried. 120 µL of the six samples of the above concentrations and the control culture medium were added to the respective wells, and each mixture was dissolved with cooling at 4° C. overnight.
30 µL of a cell suspension recovered through the same procedure as the subculture operation was seeded in the polymer compound of the present disclosure in the 48-well plate and gelled at 37° C. for 30 minutes in an atmosphere containing 5% CO2. Then, 300 µL of the six samples of the above concentrations and control culture medium were layered and cultured at 37° C. in an atmosphere containing 5% CO2.
After culturing for 7 days, 250 µL of culture supernatant was removed, 60 µL of Cell Counting Kit-8 (Doujin Kagaku Co., Ltd.) was added and the mixture was reacted overnight at 37° C. in an atmosphere containing 5% CO2. 80 µL of the supernatant of an obtained reaction product was dispensed into a 96-well plate. This supernatant was measured with a microplate reader at a measurement wavelength of 450 nm to evaluate cell proliferation.
The cell proliferation rates of 1 µM, 3 µM, 10 µM, 30 µM, 100 µM, and 1000 µM samples were compared with that of a control, and the results are shown in Table 1 below.

Compound: CC[C@H](C)[C@H](NC(=O)[C@@H]1CCCN1)C(=O)NCC(=O)O (racemic) [Preparation Example 3, prolyl-isoleucyl-glycine]
- Cell Proliferation Rates (1 µM tripeptide in TGP substrate): 114%
- Cell Proliferation Rates (3 µM tripeptide in TGP substrate): 116%
- Cell Proliferation Rates (10 µM tripeptide in TGP substrate): 118%
- Cell Proliferation Rates (30 µM tripeptide in TGP substrate): 126%
- Cell Proliferation Rates (100 µM tripeptide in TGP substrate): 126%
- Cell Proliferation Rates (1000 µM tripeptide in TGP substrate): 128%
